The target in this assay is T1, LRRK2 wild type (recombinant human, catalytic domain amino acids 970-2527, GST-tagged) (Homo sapiens, UniProt Q5S007).
T1 construct: The wild type used was recombinant human, catalytic domain (amino acids 970-2527) GST-tagged, expressed in insect cells; GST; purchased Invitrogen Corporation PV4873; host or cells: insect cells
Description: LRRK2 wild type protein kinase assay ([γ-33P] ATP, peptide substrate […]), IC50. The settings on record: LRRK2 (variant not given); read-out: Potency score, LRRK2 IC50. The assay is classed as biochemical. The procedure, abridged:
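IC50 derived from duplicate 10-point titrations, with 33P incorporation into a 100 μM peptide counted after P81 filter capture. Roughly 5 nM unactivated kinase reacted with Mg/[γ-33P]ATP for 180 min at room temperature (~21 °C), pH 7.5 Tris buffer containing 10 mM MgCl2, EGTA and DTT; acid-quenched.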

Structures can show the parent of a compound that is named as a salt. A value given as a limit tells only on which side of the number the result lay.

Drawing on patent publication US20170320870A1 (Medical Research Council Technology, priority 2009, published 2017), this text covers IC50 for 43 compounds.

One may read the IC50 as the concentration at which inhibition is half-maximal.

T1 sequence (Q5S007 970-2527): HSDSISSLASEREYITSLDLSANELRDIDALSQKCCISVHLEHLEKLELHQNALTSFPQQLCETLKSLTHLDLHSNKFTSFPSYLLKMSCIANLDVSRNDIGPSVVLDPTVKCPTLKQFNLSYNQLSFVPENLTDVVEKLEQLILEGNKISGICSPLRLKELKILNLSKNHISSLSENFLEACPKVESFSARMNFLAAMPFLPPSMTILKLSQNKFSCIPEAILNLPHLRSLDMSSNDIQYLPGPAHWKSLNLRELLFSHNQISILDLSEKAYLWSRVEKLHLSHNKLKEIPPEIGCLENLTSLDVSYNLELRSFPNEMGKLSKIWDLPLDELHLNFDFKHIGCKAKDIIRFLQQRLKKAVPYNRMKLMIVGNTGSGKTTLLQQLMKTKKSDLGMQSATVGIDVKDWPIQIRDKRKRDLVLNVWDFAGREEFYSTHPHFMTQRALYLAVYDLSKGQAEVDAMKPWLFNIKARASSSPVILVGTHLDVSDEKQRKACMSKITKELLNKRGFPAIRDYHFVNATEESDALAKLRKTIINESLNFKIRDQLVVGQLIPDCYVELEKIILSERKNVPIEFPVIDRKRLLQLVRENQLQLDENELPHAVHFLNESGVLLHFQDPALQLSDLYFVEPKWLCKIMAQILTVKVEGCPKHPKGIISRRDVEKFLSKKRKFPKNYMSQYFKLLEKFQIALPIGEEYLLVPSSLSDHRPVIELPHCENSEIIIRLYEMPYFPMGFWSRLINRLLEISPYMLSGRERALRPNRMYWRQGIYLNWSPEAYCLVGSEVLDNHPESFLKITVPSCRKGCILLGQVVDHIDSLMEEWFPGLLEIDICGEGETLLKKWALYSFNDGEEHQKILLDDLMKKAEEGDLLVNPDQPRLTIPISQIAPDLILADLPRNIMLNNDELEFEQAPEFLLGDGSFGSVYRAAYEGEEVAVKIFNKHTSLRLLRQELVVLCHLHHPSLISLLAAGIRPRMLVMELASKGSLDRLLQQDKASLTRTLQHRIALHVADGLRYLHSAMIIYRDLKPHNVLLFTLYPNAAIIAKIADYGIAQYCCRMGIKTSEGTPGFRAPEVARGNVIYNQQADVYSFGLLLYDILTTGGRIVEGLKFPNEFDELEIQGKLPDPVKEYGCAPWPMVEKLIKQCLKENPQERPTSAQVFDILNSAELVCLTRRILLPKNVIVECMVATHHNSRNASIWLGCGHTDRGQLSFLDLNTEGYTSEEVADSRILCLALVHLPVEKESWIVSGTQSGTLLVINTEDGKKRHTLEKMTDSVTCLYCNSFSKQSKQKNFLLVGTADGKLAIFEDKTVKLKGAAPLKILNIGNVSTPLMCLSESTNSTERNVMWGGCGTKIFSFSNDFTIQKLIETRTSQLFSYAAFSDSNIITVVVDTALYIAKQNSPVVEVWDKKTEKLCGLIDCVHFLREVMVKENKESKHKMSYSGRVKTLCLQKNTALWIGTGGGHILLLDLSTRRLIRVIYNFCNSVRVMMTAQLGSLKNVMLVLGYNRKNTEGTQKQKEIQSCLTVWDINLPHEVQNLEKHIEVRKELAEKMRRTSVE

Turning to `O=C(Nc1ccc(CCc2n[nH]c3ccnc(NC4CCCCC4)c23)cc1)c1ccc2nccnc2c1` [Example 270, Quinoxaline-6-carboxylic acid {4-[2-(4-cyclohexylamino-1H-pyrazolo[4,3-c]pyridin-3-yl)-ethyl]-phenyl}-amide], the IC50 is below 0.1 µM.
In the case of `COC1CCCN(C(=O)CCc2n[nH]c3ccnc(NC4CCCCC4)c23)C1` (stereo not shown) [Example 196, 3-(4-Cyclohexylamino-1H-pyrazolo[4,3-c]pyridin-3-yl)-1-(3-methoxy-piperidin-1-yl)-propan-1-one] it was 0.1 to 1 µM; in that of `Cc1n[nH]c2ccnc(N(C)Cc3ccccc3)c12` [Example 95, Benzyl-methyl-(3-methyl-1H-pyrazolo[4,3-c]pyridin-4-yl)-amine], 1 to 10 µM; in that of `CCC(CC)Nc1nccc2[nH]nc(C)c12` [Example 41, (1-Ethyl-propyl)-(3-methyl-1H-pyrazolo[4,3-c]pyridin-4-yl)-amine], 0.1 to 1 µM.
Turning to `Cc1n[nH]c2ccnc(N[C@H](C)C3CC3)c12` [Example 43, ((R)-1-Cyclopropyl-ethyl)-(3-methyl-1H-pyrazolo[4,3-c]pyridin-4-yl)-amine], the IC50 lay within 1 to 10 µM.
Consider `c1cc2[nH]nc(-c3ccoc3)c2c(NC2CCCCC2)n1` [Example 147], for which the IC50 lay in the range of 0.1 to 1 µM.
For `O=C(c1cccc(-c2n[nH]c3ccnc(NC4CCCCC4)c23)c1)N1CCOCC1` [Example 153, [3-(4-Cyclohexylamino-1H-pyrazolo[4,3-c]pyridin-3-yl)-phenyl]-morpholin-4-yl-methanone], the IC50 lay within 1 to 10 µM.
The figure for `Cc1n[nH]c2ccnc(O[C@@H]3CCC[C@H]3C)c12` (racemic) [Example 298, Trans-3-Methyl-4-(2-methyl-cyclopentyloxy)-1H-pyrazolo[4,3-c]pyridine] is below 0.1 µM; for `Cc1n[nH]c2ccnc(N[C@@H](C)c3ccccc3)c12` [Example 29, (3-Methyl-1H-pyrazolo[4,3-c]pyridin-4-yl)-((S)-1-phenyl-ethyl)-amine] it is 1 to 10 µM; for `Fc1cc(-c2n[nH]c3ccnc(NC4CCCCC4)c23)cc(F)c1F` [Example 163, Cyclohexyl-[3-(3,4,5-trifluoro-phenyl)-1H-pyrazolo[4,3-c]pyridin-4-yl]-amine] it is 1 to 10 µM.
The figure for `O=C(CCc1n[nH]c2ccnc(NC3CCCCC3)c12)N1CCCC1` [Example 173, 3-(4-Cyclohexylamino-1H-pyrazolo[4,3-c]pyridin-3-yl)-1-pyrrolidin-1-yl-propan-1-one] is 0.1 to 1 µM.
As to `Cc1n[nH]c2ccnc(OC3CCCCCC3)c12` [Example 283, 4-Cycloheptyloxy-3-methyl-1H-pyrazolo[4,3-c] pyridine], the IC50 was below 0.1 µM.
The figure for `Cc1n[nH]c2ccnc(NCCCn3cccn3)c12` [Example 345, (3-Methyl-1H-pyrazolo[4,3-c]pyridin-4-yl)-(3-pyrazol-1-yl-propyl)-amine] is 1 to 10 µM; for `FC(F)(F)c1ccc(-c2n[nH]c3ccnc(NC4CCCCC4)c23)cc1` [Example 157] it is 1 to 10 µM.
On to `Cc1n[nH]c2ccnc(OC(C)C)c12` [Example 277, 4-isopropoxy-3-methyl-1H-pyrazolo[4,3-c]pyridine], for which the concentration for half-maximal inhibition (IC50) was below 0.1 µM.
In the case of `Cc1n[nH]c2ccnc(Nc3cccc(C#N)c3)c12` [Example 347, 3-(3-Methyl-1H-pyrazolo[4,3-c]pyridin-4-ylamino)-benzonitrile] it was 0.1 to 1 µM; in that of `Cc1n[nH]c2ccnc(NC3CCC(F)(F)CC3)c12` [Example 20, (4,4-Difluoro-cyclohexyl)-(3-methyl-1H-pyrazolo[4,3-c]pyridin-4-yl)-amine], 0.1 to 1 µM; in that of `COc1ccc(-c2n[nH]c3ccnc(NC4CCCCC4)c23)cn1` [Example 142, Cyclohexyl-[3-(6-methoxy-pyridin-3-yl)-1H-pyrazolo[4,3-c]pyridin-4-yl]-amine], 1 to 10 µM.
The figure for `Cc1n[nH]c2ccnc(NCc3ccc(C(F)(F)F)cc3)c12` [Example 326, (3-Methyl-1H-pyrazolo[4,3-c]pyridin-4-yl)-4-(4-trifluoromethyl-benzyl)-amine] is 1 to 10 µM.
The figure for `Cc1n[nH]c2ccnc(NCCC3CCCN3C)c12` (stereo not shown) [Example 25, (3-Methyl-1H-pyrazolo[4,3-c]pyridin-4-yl)-[2-(1-methyl-pyrrolidin-2-yl)-ethyl]-amine] is 1 to 10 µM; for `CC(=O)N1CCC(CCc2n[nH]c3ccnc(NC4CCCCC4)c23)CC1` [Example 219, 1-{4-[2-(4-Cyclohexylamino-1H-pyrazolo[4,3-c]pyridin-3-yl)-ethyl]-piperidin-1-yl}-ethanone] it is 1 to 10 µM.
In the case of `Cc1n[nH]c2ccnc(N3CCN(C)CC3)c12` [Example 5, 3-Methyl-4-(4-methyl-piperazin-1-yl)-1H-pyrazolo[4,3-c]pyridine], the IC50 lay within 1 to 10 µM.
`Cc1cccc(-c2n[nH]c3ccnc(NC4CCCCC4)c23)c1` [Example 149, Cyclohexyl-(3-m-tolyl-1H-pyrazolo[4,3-c]pyridin-4-yl)-amine]: the IC50 was in the range of 0.1 to 1 µM.
The figure for `Cc1n[nH]c2ccnc(-c3ccc(CNS(C)(=O)=O)cc3)c12` [Example 55, N-[4-(3-Methyl-1H-pyrazolo[4,3-c]pyridin-4-yl)-benzyl]-methane-sulfonamide] is 0.1 to 1 µM; for `COc1ccccc1CNc1nccc2[nH]nc(C)c12` [Example 336] it is 1 to 10 µM; for `CCOc1cccc(Nc2nccc3[nH]nc(C)c23)c1` [Example 71, (3-Ethoxy-phenyl)-(3-methyl-1H-pyrazolo[4,3-c]pyridin-4-yl)-amine] it is 1 to 10 µM.
With “1-(3-Benzyl-piperidin-1-yl)- 3-(4-cyclohexylamino-1H- pyrazolo[4,3-c]pyridin-3-yl)- propan-1-one [Example 200]”, the IC50 was 0.1 to 1 µM.
With `Cc1n[nH]c2ccnc(N[C@@H](C)C3CC3)c12` [Example 42, ((S)-1-Cyclopropyl-ethyl)-(3-methyl-1H-pyrazolo[4,3-c]pyridin-4-yl)-amine], the IC50 lay in the range of 0.1 to 1 µM.
For `O=C(CCc1n[nH]c2ccnc(NC3CCCCC3)c12)N1CCCCC1c1ccccc1` (stereo not shown) [Example 201, 3-(4-Cyclohexylamino-1H-pyrazolo[4,3-c]pyridin-3-yl)-1-(2-phenyl-piperidin-1-yl)-propan-1-one], the IC50 lay in the range of 0.1 to 1 µM.
As to `COCCC(=O)N1CCC(Nc2nccc3[nH]nc(C)c23)CC1` [Example 102, 3-Methoxy-1-[4-(3-methyl-1H-pyrazolo[4,3-c]pyridin-4-ylamino)-piperidin-1-yl]-propan-1-one], the IC50 lay within 1 to 10 µM.
Turning to `Cc1n[nH]c2ccnc(NC3CCCN(C)C3)c12` (stereo not shown) [Example 31, (1-Methyl-piperidin-3-yl)-(3-methyl-1H-pyrazolo[4,3-c]pyridin-4-yl)-amine], the IC50 was in the range of 1 to 10 µM.
As to `Cc1n[nH]c2ccnc(Nc3ccc(-n4cncn4)cc3)c12` [Example 96, (3-Methyl-1H-pyrazolo[4,3-c]pyridin-4-yl)-(4-1,2,4-triazol-1-yl-phenyl)-amine hydrochloride salt], the IC50 is 0.1 to 1 µM.
For the compound `O=C(CCc1n[nH]c2ccnc(NC3CCCCC3)c12)NCC1CCOCC1` [Example 185, 3-(4-Cyclohexylamino-1H-pyrazolo[4,3-c]pyridin-3-yl)-N-(tetrahydro-pyran-4-ylmethyl)-propionamide], the concentration for half-maximal inhibition (IC50) was in the range of 1 to 10 µM.
In the case of `CN(C)C1CCN(C(=O)CCc2n[nH]c3ccnc(NC4CCCCC4)c23)CC1` [Example 174, 3-(4-Cyclohexylamino-1H-pyrazolo[4,3-c]pyridin-3-yl)-1-(4-dimethylamino-piperidin-1-yl)-propan-1-one] it was 1 to 10 µM; in that of `Cc1n[nH]c2ccnc(NCC3CC3)c12` [Example 18, Cyclopropylmethyl-(3-methyl-1H-pyrazolo[4,3-c]pyridin-4-yl)-amine], 1 to 10 µM.
The figure for `c1cc(-c2n[nH]c3ccnc(NC4CCCCC4)c23)cc(-n2cccn2)c1` [Example 155] is 0.1 to 1 µM.
The figure for `CCOc1ccccc1CNc1nccc2[nH]nc(C)c12` [Example 340, (2-Ethoxy-benzyl)-(3-methyl-1H-pyrazolo[4,3-c]pyridin-4-yl)-amine] is 1 to 10 µM; for `c1cc2[nH]ncc2c(NC2CCCCC2)n1` [Example 133, Cyclohexyl-(1H-pyrazolo[4,3-c]pyridin-4-yl)-amine] it is 1 to 10 µM; for `O=C(c1ccc(CCc2n[nH]c3ccnc(NC4CCCCC4)c23)cc1)N1CCOCC1` [Example 253, {4-[2-(4-Cyclohexylamino-1H-pyrazolo[4,3-c]pyridin-3-yl)-ethyl]-phenyl}-morpholin-4-yl-methanone] it is below 0.1 µM.
As to `Cc1n[nH]c2ccnc(C3CCCC3)c12` [Example 127, 4-Cyclopentyl-3-methyl-1H-pyrazolo[4,3-c]pyridine], the IC50 lay within 0.1 to 1 µM.
The figure for `Cc1n[nH]c2ccnc(OC3CCN(C(C)C)CC3)c12` [Example 119, 4-(1-Isopropyl-piperidin-4-yloxy)-3-methyl-1H-pyrazolo[4,3-c]pyridine] is 1 to 10 µM; for `Cc1n[nH]c2ccnc(NCCc3cccnc3)c12` [Example 351, (3-Methyl-1H-pyrazolo[4,3-c]pyridin-4-yl)-(2-pyridin-3-yl-ethyl)-amine] it is 0.1 to 1 µM; for `c1cc2[nH]nc(N3CCCC3)c2c(OC2CCCCC2)n1` [Example 237, 4-Cyclohexyloxy-3-pyrrolidin-1-yl-1H-pyrazolo[4,3-c]pyridine] it is 0.1 to 1 µM.
